# ChEMBL document CHEMBL3526058, “Investigating the enteroenteric recirculation of apixaban, a factor Xa inhibitor: administration of activated charcoal to bile duct-cannulated rats and dogs receiving an intravenous dose and use of drug transporter knockout rats” (Drug Metab Dispos, 2013)
# Legend:
# [1] = Cmax in Sprague-Dawley rat at 4 mg/kg, po administered 1 hr post GF-120918 treatment; type: ADME, organism-based; design: dose 4 mg/kg, route oral; settings: in vivo, with GF-120918
# [2] = Half life in Sprague-Dawley rat at 4 mg/kg, po administered 1 hr post GF-120918 treatment; type: ADME, organism-based; design: dose 4 mg/kg, route oral; settings: in vivo, with GF-120918
# [3] = Apparent oral clearance in Sprague-Dawley rat at 4 mg/kg, po administered 1 hr post GF-120918 treatment; type: ADME, organism-based; design: dose 4 mg/kg, route oral; settings: in vivo, with GF-120918
# [4] = Oral steady-state volume of distribution in Sprague-Dawley rat at 4 mg/kg administered 1 hr post GF-120918 treatment; type: ADME, organism-based; design: dose 4 mg/kg; settings: in vivo, with GF-120918, read-out: Vss/F
# [5] = Mean residence time in Sprague-Dawley rat at 4 mg/kg, po administered 1 hr post GF-120918 treatment; type: ADME, organism-based; design: dose 4 mg/kg, route oral; settings: in vivo, with GF-120918
# [6] = Oral bioavailability in Sprague-Dawley rat at 4 mg/kg administered 1 hr post GF-120918 treatment; type: ADME, organism-based; settings: in vivo, with GF-120918
# [7] = AUC (0 to 24 hrs) in beagle dog at 5 mg/kg, po; type: ADME, organism-based, Canis lupus familiaris; design: time < 24 hr, dose 5 mg/kg, route oral; settings: plasma
# [8] = Cmax in beagle dog at 5 mg/kg, po; type: ADME, organism-based, Canis lupus familiaris; design: dose 5 mg/kg, route oral; settings: in vivo
# [9] = Plasma concentration in beagle dog at 5 mg/kg, po at 8 hrs; type: ADME, organism-based, Canis lupus familiaris; design: dose 5 mg/kg, route oral
# [10] = Half life in beagle dog at 5 mg/kg, po; type: ADME, organism-based, Canis lupus familiaris; design: dose 5 mg/kg, route oral; settings: in vivo
# [11] = Apparent oral clearance in beagle dog at 5 mg/kg, po; type: ADME, organism-based, Canis lupus familiaris; design: dose 5 mg/kg, route oral; settings: in vivo
# [12] = Oral steady-state volume of distribution in beagle dog at 5 mg/kg; type: ADME, organism-based, Canis lupus familiaris; design: dose 5 mg/kg; settings: in vivo, read-out: Vss/F
# [13] = Mean residence time in beagle dog at 5 mg/kg, po; type: ADME, organism-based, Canis lupus familiaris; design: dose 5 mg/kg, route oral; settings: in vivo
# [14] = Oral bioavailability in beagle dog at 5 mg/kg; type: ADME, organism-based, Canis lupus familiaris; settings: in vivo
# [15] = AUC (0 to 24 hrs) in beagle dog at 5 mg/kg, po followed by activated charcoal administration 0.25 hrs post compound dosing; type: ADME, organism-based, Canis lupus familiaris; design: time < 24 hr, dose 5 mg/kg, route oral; settings: plasma
# [16] = Cmax in beagle dog at 5 mg/kg, po followed by activated charcoal administration 0.25 hrs post compound dosing; type: ADME, organism-based, Canis lupus familiaris; design: dose 5 mg/kg, route oral; settings: in vivo
# [17] = Plasma concentration in beagle dog at 5 mg/kg, po followed by activated charcoal administration 0.25 hrs post compound dosing measured at 8 hrs; type: ADME, organism-based, Canis lupus familiaris; design: dose 5 mg/kg, route oral
# [18] = Half life in beagle dog at 5 mg/kg, po followed by activated charcoal administration 0.25 hrs post compound dosing; type: ADME, organism-based, Canis lupus familiaris; design: dose 5 mg/kg, route oral; settings: in vivo
# [19] = Apparent oral clearance in beagle dog at 5 mg/kg, po followed by activated charcoal administration 0.25 hrs post compound dosing; type: ADME, organism-based, Canis lupus familiaris; design: dose 5 mg/kg, route oral; settings: in vivo
# [20] = Oral steady-state volume of distribution in beagle dog at 5 mg/kg followed by activated charcoal administration 0.25 hrs post compound dosing; type: ADME, organism-based, Canis lupus familiaris; design: dose 5 mg/kg; settings: in vivo, read-out: Vss/F
# [21] = Mean residence time in beagle dog at 5 mg/kg, po followed by activated charcoal administration 0.25 hrs post compound dosing; type: ADME, organism-based, Canis lupus familiaris; design: dose 5 mg/kg, route oral; settings: in vivo
# [22] = Oral bioavailability in beagle dog at 5 mg/kg followed by activated charcoal administration 0.25 hrs post compound dosing; type: ADME, organism-based, Canis lupus familiaris; settings: in vivo
# [23] = AUC (0 to 24 hrs) in beagle dog at 5 mg/kg, po followed by activated charcoal administration 1 hr post compound dosing; type: ADME, organism-based, Canis lupus familiaris; design: time < 24 hr, dose 5 mg/kg, route oral; settings: plasma
# [24] = Cmax in beagle dog at 5 mg/kg, po followed by activated charcoal administration 1 hr post compound dosing; type: ADME, organism-based, Canis lupus familiaris; design: dose 5 mg/kg, route oral; settings: in vivo
# [25] = Plasma concentration in beagle dog at 5 mg/kg, po followed by activated charcoal administration 1 hr post compound dosing measured at 8 hrs; type: ADME, organism-based, Canis lupus familiaris; design: dose 5 mg/kg, route oral
# [26] = Half life in beagle dog at 5 mg/kg, po followed by activated charcoal administration 1 hr post compound dosing; type: ADME, organism-based, Canis lupus familiaris; design: dose 5 mg/kg, route oral; settings: in vivo
# [27] = Apparent oral clearance in beagle dog at 5 mg/kg, po followed by activated charcoal administration 1 hr post compound dosing; type: ADME, organism-based, Canis lupus familiaris; design: dose 5 mg/kg, route oral; settings: in vivo
# [28] = Oral steady-state volume of distribution in beagle dog at 5 mg/kg followed by activated charcoal administration 1 hr post compound dosing; type: ADME, organism-based, Canis lupus familiaris; design: dose 5 mg/kg; settings: in vivo, read-out: Vss/F
# [29] = Mean residence time in beagle dog at 5 mg/kg, po followed by activated charcoal administration 1 hr post compound dosing; type: ADME, organism-based, Canis lupus familiaris; design: dose 5 mg/kg, route oral; settings: in vivo
# [30] = Oral bioavailability in beagle dog at 5 mg/kg followed by activated charcoal administration 1 hr post compound dosing; type: ADME, organism-based, Canis lupus familiaris; settings: in vivo
# [31] = AUC (0 to 24 hrs) in beagle dog at 5 mg/kg, po followed by activated charcoal administration 3 hrs post compound dosing; type: ADME, organism-based, Canis lupus familiaris; design: time < 24 hr, dose 5 mg/kg, route oral; settings: plasma
# [32] = Cmax in beagle dog at 5 mg/kg, po followed by activated charcoal administration 3 hrs post compound dosing; type: ADME, organism-based, Canis lupus familiaris; design: dose 5 mg/kg, route oral; settings: in vivo
# [33] = Plasma concentration in beagle dog at 5 mg/kg, po followed by activated charcoal administration 3 hrs post compound dosing measured at 8 hrs; type: ADME, organism-based, Canis lupus familiaris; design: dose 5 mg/kg, route oral
compound,measurement,setting,value
COc1ccc(-n2nc(C(N)=O)c3c2C(=O)N(c2ccc(N4CCCCC4=O)cc2)CC3)cc1,Cmax,[1],2870 ng/mL
same,half-life,[2],1.6 h
same,CL/F,[3],5 mL/min/kg
same,Vd/F,[4],0.7 L/kg
same,MRT,[5],2.1 h
same,bioavailability,[6],140%
same,AUC(0-t) at 24 h,[7],78600 ng·h/mL
same,Cmax,[8],9350 ng/mL
same,concentration at 8 h,[9],5230 ng/mL
same,half-life,[10],5.7 h
same,CL/F,[11],1 mL/min/kg
same,Vd/F,[12],0.5 L/kg
same,MRT,[13],8.5 h
same,bioavailability,[14],93%
same,AUC(0-t) at 24 h,[15],59500 ng·h/mL
same,Cmax,[16],8420 ng/mL
same,concentration at 8 h,[17],2820 ng/mL
same,half-life,[18],4.2 h
same,CL/F,[19],1.37 mL/min/kg
same,Vd/F,[20],0.5 L/kg
same,MRT,[21],6.4 h
same,bioavailability,[22],92%
same,AUC(0-t) at 24 h,[23],63900 ng·h/mL
same,Cmax,[24],8990 ng/mL
same,concentration at 8 h,[25],3380 ng/mL
same,half-life,[26],4 h
same,CL/F,[27],1.28 mL/min/kg
same,Vd/F,[28],0.5 L/kg
same,MRT,[29],5.9 h
same,bioavailability,[30],99%
same,AUC(0-t) at 24 h,[31],49200 ng·h/mL
same,Cmax,[32],8070 ng/mL
same,concentration at 8 h,[33],2190 ng/mL
